System: patients with advanced solid tumors
Experiment: Phase Ia safety, tolerability, DLT/MTD (TRAEs graded by NCI-CTCAE v4.03)
Format: in vivo
Source text: This is a phase I clinical study (ClinicalTrials.gov identifier: NCT03544905), including a phase Ia study of oral CYH33 monotherapy in patients with advanced solid tumors, and a phase Ib study of oral CYH33 monotherapy focused on several specific tumors. […] The phase Ia study included dose-escalation stage and dose-expansion stage. […] The secondary outcomes also included evaluation of changes in PD biomarkers in response to CYH33 treatment (including proteomics of blood specimens at baseline and during treatment, immunocyte subpopulation ratios and molecular markers, cell free DNA in peripheral blood, and blood glucose). However, in compliance with the local human genetic resource regulations and procedures, peripheral blood samples were not obtained for PD biomarker analysis, therefore, only fasting blood glucose was obtained and used as a PD biomarker for CYH33 treatment. The exploratory objective was the relationship between the efficacy of CYH33 treatment and tumor biomarker status.
An accelerated titration design (ATD) and an mTPI-2 design were adopted to guide toxicity monitoring and dose escalation. The target DLT rate was 30%, with the acceptable toxicity probability interval of (0.25, 0.35). For the first two preset doses of 1 mg and 5 mg CYH33 in the ATD phase, if there were no grade ≥2 TRAEs during the DLT observation period, 100% dose escalation was allowed in the subsequent dose group. After entering the mTPI-2 phase, the SMC guidance was followed to determine the dose level, dosing frequency, and number of subjects in the next dose group, based on the previously obtained safety and PK data for that dose group. If necessary, it was permitted to add an additional dose level between two explored dose levels for further investigation.
During the phase Ia study, the safe and probably effective dose will be delivered to the expansion cohort to further investigate the safety, tolerability and efficacy of this dose level, while the dose escalation study can be continued simultaneously. If necessary, it is permitted to insert a new dose level between two explored dose levels for exploration. The subjects to be enrolled in the expansion cohort are patients with advanced solid tumors with PIK3CA gene mutations. When there are two or more dose groups at dose expansion simultaneously, the allocation ratio of the number of subjects in each dose group should be as close as possible to the ratio of ORR in each dose group. In principle, when the cumulative ORR at a certain dose level is <10%, the number of subjects in this dose group will be determined by the SMC. A total of approximately 60 patients are expected to be enrolled in the whole phase Ia study.
The secondary endpoints included preliminary efficacy assessments based on ORR, PFS, DoR, DCR, and clinical benefit rate, assessed per RECIST 1.1,PK parameters for CYH33 and its metabolite I27, and changes in PD biomarkers in response to CYH33 treatment.

SMILES: COC(=O)Nc1cc(C(F)(F)F)c(-c2nc(N3CCOCC3)c3cc(CN4CCN(S(C)(=O)=O)CC4)cn3n2)cn1 [CYH33, methyl (5-(6-((4-(methylsulfonyl)piperazin-1-yl)methyl)−4-morpholinopyrrolo[2,1-f][1,2,4]triazin-2-yl)−4-(trifluoromethyl)pyridin-2-yl)carbamate]
- Blood glucose increased, Grade ≥ 3 TRAE (30 mg QD, n = 12): 0 n (%)
- Decreased appetite, Grade ≥ 3 TRAE (30 mg QD, n = 12): 0 n (%)
- Decreased appetite, all-grade TRAE (30 mg QD, n = 12): 4 (33.3) n (%)
- Diabetic ketosis, Grade ≥ 3 TRAE (30 mg QD, n = 12): 1 (8.3) n (%)
- Diarrhea, Grade ≥ 3 TRAE (30 mg QD, n = 12): 0 n (%)
- Diarrhea, all-grade TRAE (30 mg QD, n = 12): 2 (16.7) n (%)
- Dizziness, Grade ≥ 3 TRAE (30 mg QD, n = 12): 0 n (%)
- Electrocardiogram QT prolonged, Grade ≥ 3 TRAE (30 mg QD, n = 12): 0 n (%)
- Face oedema, Grade ≥ 3 TRAE (30 mg QD, n = 12): 0 n (%)
- Facial edema, all-grade TRAE (30 mg QD, n = 12): 4 (33.3) n (%)
- Fatigue, Grade ≥ 3 TRAE (30 mg QD, n = 12): 0 n (%)
- Fatigue, all-grade TRAE (30 mg QD, n = 12): 2 (16.7) n (%)
- Generalized oedema, Grade ≥ 3 TRAE (30 mg QD, n = 12): 1 (8.3) n (%)
- Grade ≥ 3 TRAEs in all patients (30 mg QD, n = 12): 7 (58.3) n (%)
- Hyperglycemia, Grade ≥ 3 TRAE (30 mg QD, n = 12): 7 (58.3) n (%)
- Hyperglycemia, all-grade TRAE (30 mg QD, n = 12): 11 (91.7) n (%)
- Hyponatremia, all-grade TRAE (30 mg QD, n = 12): 4 (33.3) n (%)
- Mouth ulceration, Grade ≥ 3 TRAE (30 mg QD, n = 12): 0 n (%)
- Nausea, Grade ≥ 3 TRAE (30 mg QD, n = 12): 0 n (%)
- Nausea, all-grade TRAE (30 mg QD, n = 12): 6 (50.0) n (%)
- Peripheral edema, Grade ≥ 3 TRAE (30 mg QD, n = 12): 0 n (%)
- Peripheral edema, all-grade TRAE (30 mg QD, n = 12): 4 (33.3) n (%)
- Rash, Grade ≥ 3 TRAE (30 mg QD, n = 12): 0 n (%)
- Rash, all-grade TRAE (30 mg QD, n = 12): 2 (16.7) n (%)
- TRAEs leading to death (30 mg QD, n = 12): 0 n (%)
- TRAEs leading to dose discontinuation (30 mg QD, n = 12): 1 (8.3) n (%)
- TRAEs leading to dose interruption (30 mg QD, n = 12): 10 (83.3) n (%)
- TRAEs leading to dose reduction (30 mg QD, n = 12): 0 n (%)
- TRAEs occurring in ≥ 10% of patients (30 mg QD, n = 12): 12 (100) n (%)
- Treatment-related serious adverse events (30 mg QD, n = 12): 1 (8.3) n (%)
- Vomiting, all-grade TRAE (30 mg QD, n = 12): 3 (25.0) n (%)
- Weight loss, all-grade TRAE (30 mg QD, n = 12): 4 (33.3) n (%)
- White blood cell count decreased, Grade ≥ 3 TRAE (30 mg QD, n = 12): 0 n (%)
- Blood glucose increased, Grade ≥ 3 TRAE (40 mg QD, n = 24): 0 n (%)
- Decreased appetite, Grade ≥ 3 TRAE (40 mg QD, n = 24): 1 (4.2) n (%)
- Decreased appetite, all-grade TRAE (40 mg QD, n = 24): 12 (50.0) n (%)
- Diabetic ketosis, Grade ≥ 3 TRAE (40 mg QD, n = 24): 0 n (%)
- Diarrhea, Grade ≥ 3 TRAE (40 mg QD, n = 24): 1 (4.2) n (%)
- Diarrhea, all-grade TRAE (40 mg QD, n = 24): 7 (29.2) n (%)
- Dizziness, Grade ≥ 3 TRAE (40 mg QD, n = 24): 1 (4.2) n (%)
- Electrocardiogram QT prolonged, Grade ≥ 3 TRAE (40 mg QD, n = 24): 0 n (%)
- Face oedema, Grade ≥ 3 TRAE (40 mg QD, n = 24): 1 (4.2) n (%)
- Facial edema, all-grade TRAE (40 mg QD, n = 24): 4 (16.7) n (%)
- Fatigue, Grade ≥ 3 TRAE (40 mg QD, n = 24): 1 (4.2) n (%)
- Fatigue, all-grade TRAE (40 mg QD, n = 24): 6 (25.0) n (%)
- Generalized oedema, Grade ≥ 3 TRAE (40 mg QD, n = 24): 0 n (%)
- Grade ≥ 3 TRAEs in all patients (40 mg QD, n = 24): 19 (79.2) n (%)
- Hyperglycemia, Grade ≥ 3 TRAE (40 mg QD, n = 24): 17 (70.8) n (%)
- Hyperglycemia, all-grade TRAE (40 mg QD, n = 24): 23 (95.8) n (%)
- Hyponatremia, all-grade TRAE (40 mg QD, n = 24): 2 (8.3) n (%)
- Mouth ulceration, Grade ≥ 3 TRAE (40 mg QD, n = 24): 1 (4.2) n (%)
- Mouth ulceration, all-grade TRAE (40 mg QD, n = 24): 5 (20.8) n (%)
- Nausea, Grade ≥ 3 TRAE (40 mg QD, n = 24): 0 n (%)
- Nausea, all-grade TRAE (40 mg QD, n = 24): 9 (37.5) n (%)
- Peripheral edema, Grade ≥ 3 TRAE (40 mg QD, n = 24): 4 (16.7) n (%)
- Peripheral edema, all-grade TRAE (40 mg QD, n = 24): 8 (33.3) n (%)
- Rash, Grade ≥ 3 TRAE (40 mg QD, n = 24): 1 (4.2) n (%)
- Rash, all-grade TRAE (40 mg QD, n = 24): 6 (25.0) n (%)
- TRAEs leading to death (40 mg QD, n = 24): 0 n (%)
- TRAEs leading to dose discontinuation (40 mg QD, n = 24): 2 (8.3) n (%)
- TRAEs leading to dose interruption (40 mg QD, n = 24): 19 (79.2) n (%)
- TRAEs leading to dose reduction (40 mg QD, n = 24): 5 (20.8) n (%)
- TRAEs occurring in ≥ 10% of patients (40 mg QD, n = 24): 23 (95.8) n (%)
- Treatment-related serious adverse events (40 mg QD, n = 24): 4 (16.7) n (%)
- Vomiting, all-grade TRAE (40 mg QD, n = 24): 6 (25.0) n (%)
- Weight loss, all-grade TRAE (40 mg QD, n = 24): 9 (37.5) n (%)
- White blood cell count decreased, Grade ≥ 3 TRAE (40 mg QD, n = 24): 1 (4.2) n (%)
- DLT rate (40 mg dose level, 1 out of 6 DLT evaluable patients): 16.7%
- patients with DLT: grade 3 hyperglycemia (40 mg, dose-escalation stage (19 patients)): 1
- patients with DLT: grade 3 hyperglycemia and grade 3 nausea (60 mg, dose-escalation stage (19 patients)): 2
- Blood glucose increased, Grade ≥ 3 TRAE (1–20 mg QD, n = 10): 0 n (%)
- Decreased appetite, Grade ≥ 3 TRAE (1–20 mg QD, n = 10): 0 n (%)
- Decreased appetite, all-grade TRAE (1–20 mg QD, n = 10): 3 (30.0) n (%)
- Diabetic ketosis, Grade ≥ 3 TRAE (1–20 mg QD, n = 10): 0 n (%)
- Diarrhea, Grade ≥ 3 TRAE (1–20 mg QD, n = 10): 0 n (%)
- Diarrhea, all-grade TRAE (1–20 mg QD, n = 10): 3 (30.0) n (%)
- Dizziness, Grade ≥ 3 TRAE (1–20 mg QD, n = 10): 0 n (%)
- Electrocardiogram QT prolonged, Grade ≥ 3 TRAE (1–20 mg QD, n = 10): 1 (10.0) n (%)
- Face oedema, Grade ≥ 3 TRAE (1–20 mg QD, n = 10): 0 n (%)
- Facial edema, all-grade TRAE (1–20 mg QD, n = 10): 0 n (%)
- Fatigue, Grade ≥ 3 TRAE (1–20 mg QD, n = 10): 0 n (%)
- Fatigue, all-grade TRAE (1–20 mg QD, n = 10): 1 (10.0) n (%)
